The subject of the experiment is normal human umbilical vein endothelial cell (HUVEC). Put plainly: NO production: nitrite (NO2) in HUVEC culture supernatant by HPLC. Conditions: 24-hour culture, vs control (PBS), FIG. 1. Type of experiment: cell-based. As to the method: A normal human umbilical vein endothelial cell (HUVEC) line available from Clonetics (SanDiego, Calif., USA) was used with EGM-2 Bullet Kit medium containing 2% FBS (Takara Bio). The cells were cultured in at 37° C., in 5% CO2 incubator, and used for experiment after 4 to 6 passages. Citrulline and reduced glutathione were obtained from Kyowa Hakko Bio.
A cell suspension (0.45 mL) with the adjusted initial cell combination of 5×10^5 cells/mL was inoculated in a 24-well plate (IWAKI). After 40-hour culture, the media were replaced with those containing citrulline (final concentration 0.3 mM; citrulline group), reduced glutathione (final concentration 1 mM: high-dose glutathione group), and a citrulline and reduced glutathione mixture (citrulline final concentration 0.3 mM; glutathione final concentration 0.3 mM; citrulline+low -dose glutathione group). Media with the sole addition of solvent (PBS) were used as a control group. After 24-hour culture, the cell culture (100 μL) was centrifuged at 12,000 rpm for 10 minutes, and the concentration of nitrite (NO2), which is the stable NO metabolite, in culture supernatant was quantified by HPLC (ENO-20, EICOM).

In the case of `NC(=O)NCCC[C@H](N)C(=O)O` [citrulline], for the setting “citrulline final concentration 0.3 mM”, the “effect on NO production (nitrite NO2 concentration in medium)” value is on record as “no effect on NO production”.
With `N[C@@H](CCC(=O)N[C@@H](CS)C(=O)NCC(=O)O)C(=O)O` [glutathione, reduced glutathione], the “effect on NO production (nitrite NO2 concentration in medium)” value (reduced glutathione final concentration 1 mM (high-dose)) is “no effect on NO production”.

The values are drawn from patent US20160296586A1, “AGENT FOR PREVENTING OR AM[…] ENDOTHELIAL MALFUNCTION” (KYOWA HAKKO BIO CO., LTD., priority 2012, published 2016).
